Laboratory results: patent US11420961B2, “Heterocyclic compounds” (Hoffmann-La Roche Inc., priority 2017, dated 2022)

target: T1, MAGL (recombinant wild-type) (Homo sapiens, UniProt Q99685); test: 4-NPA assay: MAGL inhibitory activity by hydrolysis of 4-nitrophenylacetate, absorbance at 405 nm; format: biochemical; conditions: 4-NPA assay (values without footnote [a])
T1 sequence (Q99685 1-303): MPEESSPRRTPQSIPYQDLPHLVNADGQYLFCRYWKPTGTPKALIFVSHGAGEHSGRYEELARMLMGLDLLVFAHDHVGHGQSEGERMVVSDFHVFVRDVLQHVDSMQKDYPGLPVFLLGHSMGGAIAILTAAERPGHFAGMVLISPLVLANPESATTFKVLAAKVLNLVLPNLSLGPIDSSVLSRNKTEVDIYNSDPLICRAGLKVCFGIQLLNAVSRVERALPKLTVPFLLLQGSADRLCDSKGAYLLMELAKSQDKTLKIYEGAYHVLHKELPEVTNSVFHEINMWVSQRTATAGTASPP
Description: Compounds were profiled for MAGL inhibitory activity by measuring the enzymatic activity of MAGL by following the hydrolysis of 4-nitorphenylacetate resulting in 4-nitrophenol, which absorbs at 405-412 nm (G. G. Muccioli, G. Labar, D M. Lambert, Chem. Bio. Chem. 2008, 9, 2704-2710). This assay is hereinafter abbreviated “4-NPA assay”.
The 4-NPA assay was carried out in 384 well assay plates (black with clear bottom, non-binding surface treated, Corning Ref. 3655) in a total volume of 40 μL. Compound dilutions were made in 100% DMSO (VWR Chemicals 23500.297) in a polypropylene plate in 3-fold dilution steps to give a final concentration range in the assay from 25 μM to 1.7 nM. 1 μL compound dilutions (100% DMSO) were added to 19 μL MAGL (recombinant wild-type) in assay buffer (50 mM TRIS (GIBCO, 15567-027), 1 mM EDTA (Fluka, 03690-100 ml)). The plate was shaked for 1 min at 2000 rpm (Variomag Teleshake) and then incubated for 15 min at RT. To start the reaction, 20 μL 4-Nitrophenlyacetate (Sigma N-8130) in assay buffer with 6% EtOH was added. The final concentrations in the assay were 1 nM MAGL and 300 μM 4-Nitrophenylacetate. After shaking (1 min, 2000 rpm) and 5 min incubation at RT, the absorbance at 405 nm was measured for a first time (Molecular Devices, SpectraMax Paradigm). A second measurement was then done after incubation for 80 min at RT. From the two measurements, the slope was calculated by substracting the first from the second measurement.

Row | Compound | IC50
1 | O=C1COc2ccc(C(=O)N3CCC([C@H](c4ccccc4)c4cccc(OCCOCCF)c4)CC3)cc2N1 [Example 66, 6-[4-[(R)-[3-[2-(2-fluoroethoxy)ethoxy]phenyl]-phenyl-methyl]piperidine-1-carbonyl]-4H-1,4-benzoxazin-3-one] | 0.24 nM
2 | O=C1COc2ccc(C(=O)N3CCC([C@H](c4ccc(F)cc4)c4cccc(OCCF)c4)CC3)cc2N1 [Example 76, 6-[4-[(R)-[3-(2-fluoroethoxy)phenyl]-(4-fluorophenyl)methyl]piperidine-1-carbonyl]-4H-1,4-benzoxazin-3-one] | 0.53 nM
3 | O=C1COc2ccc(C(=O)N3CCC(C(c4ccccc4)c4ccc(F)nc4)CC3)cc2N1 (single isomer, unassigned) [Example 102, 6-[4-[(S or R)-(6-Fluoro-3-pyridyl)-phenyl-methyl]piperidine-1-carbonyl]-4H-1,4-benzoxazin-3-one] | 3.5 nM
4 | CS(=O)(=O)c1cccc(C(c2ccccc2)C2CCN(C(=O)c3ccc4c(c3)NC(=O)CO4)CC2)c1 (single isomer, unassigned) [Example 128, 6-[4-[(S or R)-(3-Methylsulfonylphenyl)-phenyl-methyl]piperidine-1-carbonyl]-4H-1,4-benzoxazin-3-one] | 0.6 nM
5 | O=C1COc2ccc(C(=O)N3CCC([C@H](c4ccccc4)c4ccc(OCCF)cc4)CC3)cc2N1 [Example 79, 6-[4-[(R)-[4-(2-fluoroethoxy)phenyl]-phenyl-methyl]piperidine-1-carbonyl]-4H-1,4-benzoxazin-3-one] | 6 nM
6 | O=C1COc2ccc(C(=O)N3CCC(C(c4ccccc4)c4ccc(F)nc4)CC3)cc2N1 (single isomer, unassigned) [Example 103, 6-[4-[(R or S)-(6-Fluoro-3-pyridyl)-phenyl-methyl]piperidine-1-carbonyl]-4H-1,4-benzoxazin-3-one] | 2.2 nM
7 | O=C1COc2ccc(C(=O)N3CCC(C(c4ccc(F)cc4)c4ccc(OCCOCCF)cc4)CC3)cc2N1 (single isomer, unassigned) [Example 108, 6-[4-[(S or R)-[4-[2-(2-Fluoroethoxy)ethoxy]phenyl]-(4-fluorophenyl)methyl]piperidine-1-carbonyl]-4H-1,4-benzoxazin-3-one] | 9.6 nM
8 | O=C1COc2ccc(C(=O)N3CCC([C@@H](c4ccccc4)c4ccc(OCCF)cc4)CC3)cc2N1 [Example 80, 6-[4-[(S)-[4-(2-fluoroethoxy)phenyl]-phenyl-methyl]piperidine-1-carbonyl]-4H-1,4-benzoxazin-3-one] | 0.3 nM
9 | O=C1COc2ccc(C(=O)N3CCC(C(c4ccccc4)c4cccc(F)n4)CC3)cc2N1 (single isomer, unassigned) [Example 98, 6-[4-[(S or R)-(6-Fluoro-2-pyridyl)-phenyl-methyl]piperidine-1-carbonyl]-4H-1,4-benzoxazin-3-one] | 1.8 nM
10 | O=C1COc2ccc(C(=O)N3CCC([C@H](c4ccccc4)c4cccc(F)c4)CC3)cc2N1 [Example 75, 6-[4-[(R)-(3-fluorophenyl)-phenyl-methyl]piperidine-1-carbonyl]-4H-1,4-benzoxazin-3-one] | 0.43 nM
11 | Cn1cc(C2CCN(C(=O)c3ccc4c(c3)NC(=O)CO4)CC2)c2cc(Cl)ccc21 [Example 29] | 1.7 nM
12 | O=C1COc2ccc(C(=O)N3CCC(C(c4ccccc4)c4ccccc4)CC3)cc2N1 [Example 2, 6-(4-Benzhydrylpiperidine-1-carbonyl)-4H-1,4-benzoxazin-3-one] | 0.5 nM
13 | O=C1COc2ccc(C(=O)N3CCC(C4(c5ccc(Cl)cc5)CCCO4)CC3)cc2N1 (centres unmarked) [Example 53, 6-[4-[2-(4-chlorophenyl)oxolan-2-yl]piperidine-1-carbonyl]-4H-1,4-benzoxazin-3-one] | 6.3 nM
14 | COc1ccc2[nH]cc(C3CCN(C(=O)c4ccc5c(c4)NC(=O)CO5)CC3)c2c1 [Example 24, 6-[4-(5-methoxy-1H-indol-3-yl)piperidine-1-carbonyl]-4H-1,4-benzoxazin-3-one] | 20 nM
15 | O=C1COc2ccc(C(=O)N3CCC(c4csc5ccccc45)CC3)cc2N1 [Example 42, 6-[4-(1-benzothiophen-3-yl)piperidine-1-carbonyl]-4H-1,4-benzoxazin-3-one] | 97 nM
16 | O=C1COc2ccc(C(=O)N3CCC(C(c4ccccc4)n4ccc5ccccc54)CC3)cc2N1 (centres unmarked) [Example 60, 6-[4-[indol-1-yl(phenyl)methyl]piperidine-1-carbonyl]-4H-1,4-benzoxazin-3-one] | 0.62 nM

Row | Compound | IC50
17 | O=C1COc2ccc(C(=O)N3CCC(C(c4ccccc4)c4cccc(F)n4)CC3)cc2N1 (single isomer, unassigned) [Example 99, 6-[4-[(R or S)-(6-fluoro-2-pyridyl)-phenyl-methyl]piperidine-1-carbonyl]-4H-1,4-benzoxazin-3-one] | 2.6 nM
18 | O=C1COc2ccc(C(=O)N3CCC(C(c4ccc(F)cc4)c4ccnc(F)c4)CC3)cc2N1 (single isomer, unassigned) [Example 110, 6-[4-[(S or R)-(4-Fluorophenyl)-(2-fluoro-4-pyridyl)methyl]piperidine-1-carbonyl]-4H-1,4-benzoxazin-3-one] | 6.2 nM
19 | COc1ccc(C(c2ccccn2)C2CCN(C(=O)c3ccc4c(c3)NC(=O)CO4)CC2)cc1OC (single isomer, unassigned) [Example 117, 6-[4-[(S or R)-(3,4-Dimethoxyphenyl)-(2-pyridyl)methyl]piperidine-1-carbonyl]-4H-1,4-benzoxazin-3-one] | 7.3 nM
20 | O=C1COc2ccc(C(=O)N3CCN(c4ccc(Cl)c(Cl)c4)CC3)cc2N1 [Example 86, 6-[4-(3,4-dichlorophenyl)piperazine-1-carbonyl]-4H-1,4-benzoxazin-3-one] | 612 nM
21 | O=C1COc2ccc(C(=O)N3CCC(C(c4ccccc4)c4ccc(OCCOCCF)cc4)CC3)cc2N1 (single isomer, unassigned) [Example 97, 6-[4-[(R or S)-[4-[2-(2-Fluoroethoxy)ethoxy]phenyl]-phenyl-methyl]piperidine-1-carbonyl]-4H-1,4-benzoxazin-3-one] | 7.4 nM
22 | COc1cc(C(=O)N2CCC(C(c3ccc(F)cc3)c3ccc(F)cc3)CC2)cc2c1CCC(=O)N2 [Example 100, 7-[4-[Bis(4-fluorophenyl)methyl]piperidine-1-carbonyl]-5-methoxy-3,4-dihydro-1H-quinolin-2-one] | 6.4 nM
23 | O=C1COc2ccc(C(=O)N3CCC(c4c[nH]c5ccc(Cl)cc45)CC3)cc2N1 [Example 20, 6-[4-(5-chloro-1H-indol-3-yl)piperidine-1-carbonyl]-4H-1,4-benzoxazin-3-one] | 3.55 nM
24 | Cn1cc(C2CCN(C(=O)c3ccc4c(c3)NC(=O)CO4)CC2)c2ccccc21 [Example 31, 6-[4-(1-methylindol-3-yl)piperidine-1-carbonyl]-4H-1,4-benzoxazin-3-one] | 28.9 nM
25 | CC(C)n1nc(C2CCN(C(=O)c3ccc4c(c3)NC(=O)CO4)CC2)c2ccc(F)cc21 [Example 38, 6-[4-(6-fluoro-1-propan-2-ylindazol-3-yl)piperidine-1-carbonyl]-4H-1,4-benzoxazin-3-one] | 86 nM
26 | COc1cccc([C@H](c2ccccc2)C2CCN(C(=O)c3ccc4c(c3)NC(=O)CO4)CC2)c1 (single isomer, unassigned) [Example 12] | 0.4 nM
27 | COc1ccc(C(c2ccccn2)C2CCN(C(=O)c3ccc4c(c3)NC(=O)CO4)CC2)cc1OC (single isomer, unassigned) [Example 116, 6-[4-[(R or S)-(3,4-Dimethoxyphenyl)-(2-pyridyl)methyl]piperidine-1-carbonyl]-4H-1,4-benzoxazin-3-one] | 55.4 nM
28 | O=C1COc2ccc(C(=O)N3CCC(c4c[nH]c5ncccc45)CC3)cc2N1 [Example 45, 6-[4-(1H-pyrrolo[2,3-b]pyridin-3-yl)piperidine-1-carbonyl]-4H-1,4-benzoxazin-3-one] | 220 nM
29 | O=C1COc2ccc(C(=O)N3CCN(c4ccc(Cl)c(C(F)(F)F)c4)CC3)cc2N1 [Example 85, 6-[4-[4-chloro-3-(trifluoromethyl)phenyl]piperazine-1-carbonyl]-4H-1,4-benzoxazin-3-one] | 497 nM
30 | O=C1COc2ccc(C(=O)N3CCC(c4c[nH]c5ccccc45)CC3)cc2N1 [Example 18, 6-[4-(1H-indol-3-yl)piperidine-1-carbonyl]-4H-1,4-benzoxazin-3-one] | 33 nM
31 | O=C1COc2ccc(C(=O)N3CCC(c4nccc(C(F)(F)F)n4)C3)cc2N1 (centres unmarked) [Example 57, 6-[3-[4-(trifluoromethyl)pyrimidin-2-yl]pyrrolidine-1-carbonyl]-4H-1,4-benzoxazin-3-one] | 3020 nM
32 | Cc1ccc([C@H](c2ccccc2)C2CCN(C(=O)c3ccc4c(c3)NC(=O)CO4)CC2)cc1 (single isomer, unassigned) [Example 14] | 0.5 nM
